Measured values taken from US7183283B2, “Piperidinyl-alkylamino-pyridazinone derivatives, a process for the preparation thereof and pharmaceutical compositions containing said compounds” (Egis Gyogyszergyar RT., priority 2002, dated 2007).

Tests used:
mice = assay: Inhibition of spontaneous motor activity (sedative effect); format: in vivo
Experimental: The effect on spontaneous motor activity was investigated according to Borsy and co-workers [Borsy, J. et al, Arch. Int. Pharmacodyn., 124, 180–190 (1960)] in a ten channel Dews instrument, with 1—1 animal in each channel. Animals were placed into the instrument 60 min after per os treatment with either vehicle or test compound, and interruptions of infrared beams were recorded for 30 min. […] Diazepam [7-chloro-1,3-dihydro-1-methyl-5-phenyl-2H-1,4-benzodiazepine-2-one] was used as reference compound.

rats = assay: Elevated plus-maze (anxiolytic effect); format: in vivo, rat; conditions: male Sprague-Dawley rats, po, tested 60 min after treatment, 5 min test time
Source text: Tests have been performed as described by Pellow and co-workers [J. Neurosci. Methods, 14, 149 (1985)]. A wooden cross, 15 cm wide with 100 cm long arms was used for the experiments. The sides and ends of two opposite arms of the cross were equipped with 40 cm high walls, however, the arms were open to the 15×15 cm central area (closed arms). The two other opposite arms were not encircled by walls (open arms).
Male Sprague-Dawley rats weighing 200–220 g were used for the experiments. The animals were placed in the central area of the equipment 60 min after treatment and the following four parameters have been observed for the 5 min test time: • time spent in the open arms, • time spent in the closed arms, • number of entries into the open arms, • number of entries into the closed arms.
The effect was expressed as percent increase in either the time (measured in sec) spent in the open arms or number of entries into the open arms. MEDs (minimal effective dose) were determined for each compound regarding the time spent in the open arms. Results are summarized in Table I. Buspiron [8-[4-[4-(2-pyrimidinyl)-1-piperazinyl]-butyl]-8-azaspiro[4,5]decan-7,9-dion] was used as reference compound.

[1] = mice, per os, placed in Dews instrument 60 min after treatment, recorded for 30 min

Compound | ID50 (50 percent inhibitory dose), spontaneous motor activity (mice; [1]) | MED (minimal effective dose) regarding the time spent in the open arms (rats) | ID50 (50 percent inhibitory dose), spontaneous motor activity (mice; mouse, in vivo, 60 min) | melting point
CN1C(=O)CN=C(c2ccccc2)c2cc(Cl)ccc21 [Diazepam, 7-chloro-1,3-dihydro-1-methyl-5-phenyl-2H-1,4-benzodiazepine-2-one, reference compound] | 7.0 mg/kg po | – | – | –
O=C1CC2(CCCC2)CC(=O)N1CCCCN1CCN(c2ncccn2)CC1 [Buspiron, 8-[4-[4-(2-pyrimidinyl)-1-piperazinyl]-butyl]-8-azaspiro[4,5]decan-7,9-dion, reference compound] | – | 3.0 mg/kg po | – | –
Cn1ncc(NCCN2CCC(C(=O)c3ccc(F)cc3O)CC2)cc1=O [Example 1, 5-{2-[4-[1-(4-fluoro-2-hydroxy-phenyl)-methanoyl]-piperidine-1-yl]-ethylamino}-2-methyl-2H-pyridazine-3-one] | – | ≦0.03 mg/kg po | >100 mg/kg po | 200 to 202 °C
CC(CNc1cnn(C)c(=O)c1)N1CCC(C(=O)c2ccc(F)cc2O)CC1 (stereo not shown) [Example 3, 5-{2-[4-[1-(4-fluoro-2-hydroxy-phenyl)-methanoyl]-piperidine-1-yl]-propylamino}-2-methyl-2H-pyridazine-3-one] | – | ≦0.3 mg/kg po | >100 mg/kg po | 199 to 201 °C
Cl.Cl.O=C(c1ccc(F)cc1O)C1CCN(CCNc2cn[nH]c(=O)c2)CC1 [Example 2, 5-{2-[4-[1-(4-fluoro-2-hydroxy-phenyl)-methanoyl]-piperidine-1-yl]-ethylamino}-2H-piridazine-3-one-dihydrochloride] | >100 mg/kg po | ≦0.3 mg/kg po | – | –
